This is an account of results in patent US20050042281A1, “Compositions for delivering therapeutic agents across the oral mucosa” (priority 2003, published 2005).

A short description of data set [1]: Extent of un-ionized form at a given pH, worked out from pKa. The class given is physicochemical. The source says:
Conversion of the ionized form to the un-ionized form for basic agents is related to pH by the formula: pH=pKa +Log10 (Un-ionized concentration/Ionized concentration). When the pH is the same as the pKa, equimolar concentrations of the unionized form and ionized form exist. […] Similarly, when the pH is two units higher than the pKa, the ratio of un-ionized form to the ionized form is 100:1. As noted above, the un-ionized form is lipophilic and, therefore, more capable of passing through the mucous membranes than the ionized form, which is lipophobic in nature. Accordingly, increasing the pH of the saliva favors conversion of the ionized form into the un-ionized form for basic agents, and the final pH may be determined by making use of the above formula for any basic agent.

A further data set in a line: in vitro. As to conditions: PAMPA.
Data set [2] is described as follows: Membrane assay (parallel artificial membrane, effective permeability). As to conditions: for Papp: PAMPA. In general terms: The PAMPA barrier holds no transporters, so it reflects passive diffusion.
Experimental: (§1) This assay uses a lipid-coated membrane to predict lipid mucosal membrane penetration.
(§2) The membrane apparatus consists of a dodecane membrane sandwiched between a donor and acceptor cell.
(§3) Membrane assays were performed using oxycodone HCl solutions at a pH of 6.5, 9.5, and 10.0. The pH of the solutions was adjusted using a freshly prepared 0.01 M sodium bicarbonate—sodium carbonate buffer. Permeation was measured by determining the concentrations of oxycodone in the acceptor cell and is expressed as Pe (effective permeability in centimeters per second).
For data set [3] the following is noted: pH at which net charge is zero; cited from earlier work.

Experimental for in vitro: as §1, §2, §3

One may read the Papp as the rate of passage across a membrane or cell layer, normalised by area and donor concentration. Lower therefore signals slow passage. For the compound `CNS(=O)(=O)Cc1ccc2[nH]cc(CCN(C)C)c2c1` [Sumatriptan, sumatriptan], the un-ionized is recorded as 99% in data set [1] (at pH 10.5) and 100% in data set [1] (at pH 11.5). The figures for the Papp in “in vitro” (pH 9), in “in vitro” (pH 9.5) and in “in vitro” (pH 10) were 599 ×10⁻⁶ cm/s, 945 ×10⁻⁶ cm/s and 1560 ×10⁻⁶ cm/s, respectively.

Turning to `COc1ccc2c3c1O[C@H]1C(=O)CC[C@@]4(O)[C@@H](C2)N(C)CC[C@]314` [Oxycodone, oxycodone], the Papp was found to be 227 ×10⁻⁶ cm/s in data set [2] (pH 6.5), 490 ×10⁻⁶ cm/s in data set [2] (pH 9.5) and 554 ×10⁻⁶ cm/s in data set [2] (pH 10). Also, the un-ionized in data set [1] (at pH 9.9) is listed as 99%; in data set [1] (at pH 10.9), 100%.

Regarding `Cc1nccn1CC1CCc2c(c3ccccc3n2C)C1=O` (stereo not shown) [Ondansetron], the “increase of effective permeability” value in data set [2] (pH 8.5 relative to pH 5.4) was greater than 1000%; in data set [2] (pH 8.5 relative to pH 7.4), “more than 200%”.

In the case of `CN1CCC23c4c5ccc(O)c4OC2C(O)C=CC3C1C5` (stereo not shown) [morphine], in data set [3], the isoelectric point is recorded as 9.1.
